Laboratory results published in publication PMC5543107, “Inhibition of glutamate decarboxylase (GAD) by ethyl ketopentenoate (EKP) induces treatment-resistant epileptic seizures in zebrafish” (Scientific Reports, 2017).
Where “and” joins values, the source holds several entries; their conditions need not be identical. Equal entries are not always repeated.

Experiments:
GAD = biological target: GAD; design: method as in PMID 29640; conditions: in vitro studies; read-out: Ki for GAD inhibition; cited from earlier work
mice = system: mice; design: method as in PMID 29640; conditions: intracerebroventricular (icv) administration; cited from earlier work
c-fos expression = c-fos expression in larval heads by qPCR; type: in vivo, Danio rerio; conditions: 7 dpf larval heads, 15 min, 400 μM EKP or 20 mM PTZ (positive control)
Protocol: To measure the seizure-related changes in c-fos mRNA expression in the CNS, 12 larvae (7 dpf) were treated with either 20 mM PTZ, 400 μM EKP or VHC for 15 min and then rapidly decapitated. The heads were immediately processed for RNA isolation followed by cDNA synthesis as described for gad1b and gad2. qPCR analysis of c-fos mRNA expression using Bio-Rad 20x PrimePCR assays (c-fos assay ID: qDreCED0015103) was performed as described for gad1b and gad2, and normalized to the housekeeping gene ef1α and β-actin 1 (primers, Table S1).

7 dpf zebrafish larvae [1] = assay: EKP-induced locomotor activity, automated video tracking; type: in vivo, Danio rerio
Protocol: Larvae (6 dpf) in 100 µl VHC were arrayed individually in a 96-well plate (tissue culture plate, flat bottom, Falcon, USA) and kept for 18 h in the dark at 28 °C. Prior to tracking the following day (7 dpf) 100 μl of VHC or EKP stock solution was added to each well to obtain a range of EKP concentrations (200 μM-800 μM). The plates were placed in an automated video tracking device (ZebraBox^TM apparatus; Viewpoint, Lyon, France) and 5 min later the locomotor behavior of the larvae was monitored for 2 h in the dark at 28 °C. Locomotor activity was quantified using ZebraLab™ software (Viewpoint, Lyon, France) and expressed in “actinteg” units per 5-min interval. The actinteg value is defined as the sum of all image pixel changes detected during the time window.
These seizures are defined as rapid corkscrew-like accompanied with entire body jerking and twitching, which are easily distinguished from other behavioral abnormalities (for description of phase 1 and 3 seizures, see results).

7 dpf zebrafish larvae [2] = assay: Survival rate of larvae exposed to EKP; type: in vivo, Danio rerio; conditions: 400 μM EKP, first 30 min
Protocol: Larvae (7 dpf) were arrayed individually in a 96-well plate, exposed to EKP (200 μM-800 μM) or VHC (control) and immediately scored under a stereomicroscope for lethality every 5 min for 1 h.

7 dpf zebrafish larvae [3] = assay: Local field potential (LFP) recordings in the optic tectum after EKP; type: in vivo, Danio rerio
Protocol: Larvae (6 dpf) in 100 µl VHC were arrayed individually in a 96-well plate and kept for 18 h in the dark at 28 °C. […] Next, the treated larva was embedded ventral side down in 2% low melting point agarose bathed in artificial cerebrospinal fluid (ACSF, 124 mM NaCl, 2 mM KCl, 2 mM MgSO4, 2 mM CaCl2, 1.25 mM KH2PO4, 26 mM NaHCO3, and 10 mM glucose). A blunt glass electrode (soda lime glass, Hilgenberg, Germany) was pulled with DMZ Universal Puller (Zeitz, Germany) to an opening of 15–20 microns, filled with ACSF and placed on the skin above the optic tectum. The recordings were performed using WinEDR (John Dempster, University of Strathclyde, UK). Differential signal was band pass filtered at 0.3–300 Hz and digitized at 2 kHz via a PCI-6251 interface (National Instruments, UK). LFP recordings started each time exactly 2 min after the removal of the larva from the EKP solution (or VHC) and were continued for 10 min at room temperature (24 °C).
EKP-induced events were considered as epileptiform activity when their signal exceeded three times the baseline and lasted for minimum 100 msec, as described previously. Electrophysiological recordings were analyzed in a blinded way using Clampfit 10.2 software (Molecular Devices, USA).

[4] = system: Tg(elavl3:GA) zebrafish larvae; assay: Neuroluminescence recording of Tg(elavl3:eGFP-apoAequorin) larvae exposed to EKP; type: in vivo, Danio rerio; conditions: 400 µM EKP, 30-min recording, vs VHC
Protocol: Tg(elavl3:eGFP-apoAequorin) zebrafish larvae were visually screened for even GFP expression at 3 dpf. Selected larvae were incubated with VHC in 40 µM CLZN-h for 18–24 h in the dark at 28 °C[38]. Excess of CLZN-h was removed by washing larvae repeatedly in E3 medium afterwards. […] The recordings started each time exactly 5 min after EKP exposure and were continued for 30 min. Photons emitted were detected by a photon-counting tube (Type H3460–04, Hamamatsu Photonics, Japan) that was positioned about 2 cm above the larvae. Light impulses were discriminated, prescaled and counted with a PC-based 32-bit counter/timer board (PCI-6601, National Instruments Corporation, Austin, TX, USA). The number of impulses occurring during a 5-sec time interval was monitored with custom-built software. Analysis of the bioluminescence recordings was done in a blinded way.

zebrafish larvae = system: zebrafish larvae; design: method as in PMID 25845493; conditions: AG 200 mM − 300 mM; cited from earlier work
[5] = system: EKP-treated zebrafish larvae; assay: Effect of ASDs on EKP-induced locomotion activity; type: in vivo, Danio rerio; conditions: ASD at MTC, 18 h pre-incubation, 400 µM EKP
Protocol: Then, the larvae were treated with 400 µM EKP (or VHC) and the locomotion activity was monitored for 30 min (after 5 min of habituation) as described earlier. The average amount of movement per 5-min intervals was measured, quantified and normalized to the EKP control group for the entire 30-min tracking session or per 5-min interval.

[6] = system: EKP-treated zebrafish larvae; assay: Effect of ASDs on EKP-induced epileptiform discharges (LFP); type: in vivo, Danio rerio; conditions: ASD at MTC, 18 h pre-incubation, 400 µM EKP, 10-min LFP recording
Protocol: Then, the larvae were treated with 400 µM EKP (or VHC), embedded in agarose, and the LFP recordings were performed as described earlier.

[7] = system: EKP-treated Tg(elavl3:GA) zebrafish larvae; assay: Effect of ASDs on EKP-induced neuroluminescent events; type: in vivo, Danio rerio; conditions: ASD at MTC (ETS 250 µM, TGB 50 µM), 18 h, 400 µM EKP, 30-min recording
Protocol: Recordings were performed as described earlier.

[8] = 7 dpf larvae, 200-800 μM tested

## C=CCC(=O)C(=O)O [KPA, 2-keto-4-pentenoic acid]
GAD
  Ki: 0.001 mM
mice
  ED50 for seizure induction: 14.5 µg/kg

## C1CCc2nnnn2CC1 [PTZ, Pentylenetetrazol]
c-fos expression
  c-fos expression compared to VHC: significantly increased

## ethyl ketopentenoate [EKP]
7 dpf zebrafish larvae [1]; 400 μM EKP, 7 dpf larvae, vs VHC
  Locomotor activity: robust increase of locomotor activity
7 dpf zebrafish larvae [1]; [8]
  EKP concentrations at which a second phase (hyperactivity plateau) followed: ≥ 300 µM
  EKP concentrations with third phase (irreversible decline of total larval movement, paralysis, death): 300 to 800 µM
7 dpf zebrafish larvae [1]; zebrafish larvae, AG data ref 13
  Fold lower concentration inducing hyperactivity compared with AG: 100 fold
7 dpf zebrafish larvae [2]
  Larval death: without inducing any larval death
7 dpf zebrafish larvae [3]; 400 μM EKP 15 min, optic tectum, 10-min recording, n = 58
  Mean frequency of epileptiform events: 55.76 ± 6.87 events/10 min and 55.76 ± 6.872 events/10 min
7 dpf zebrafish larvae [3]; 400 μM EKP, number of larvae out of total
  Larvae with multiple epileptiform events: 58/58
c-fos expression
  c-fos expression compared to VHC: significantly increased
[4]
  Averaged aequorin light signal: increased

## C=CCC(N)C(=O)O (stereo not drawn) [AG, 2-amino-4-pentenoic acid]
GAD
  Ki: ~50 mM
Zebrafish larvae
  Outcome of seizures at high AG concentrations: lethal

## N#Cc1ccccc1-c1cc(-c2ccccn2)cn(-c2ccccc2)c1=O [PER, perampanel]
[5]
  Effect on EKP-induced locomotion (whole 30-min recording): significantly prevented
[6]
  Effect on number of epileptiform discharges generated by EKP: significantly attenuated
[7]
  Effect on EKP-induced neuronal activity (cumulative photons emitted): significantly diminished

## CC1(C)O[C@@H]2[C@@H](CO[C@@]3(COS(N)(=O)=O)OC(C)(C)O[C@@H]23)O1 [TPM, topiramate]
[6]
  Effect on number of epileptiform discharges generated by EKP: significantly attenuated
[7]
  Effect on EKP-induced neuronal activity (cumulative photons emitted): significantly diminished

## C=CC[C@@H](N)C(=O)O [D-AG]
mice
  ED50 for seizure induction: 804 µg/kg

## O=C1NC(=O)C(c2ccccc2)(c2ccccc2)N1 [PHT, phenytoin]
[6]
  Effect on number of epileptiform discharges generated by EKP: did not show significant effects
[7]
  Effect on EKP-induced neuronal activity (cumulative photons emitted): significantly diminished

## CCOC(=O)Nc1ccc(NCc2ccc(F)cc2)cc1N [RGB, retigabine]
[6]
  Effect on number of epileptiform discharges generated by EKP: did not show significant effects
[7]
  Effect on EKP-induced neuronal activity (cumulative photons emitted): significantly diminished

## NS(=O)(=O)Cc1noc2ccccc12 [ZSM, zonisamide]
[6]
  Effect on number of epileptiform discharges generated by EKP: significantly attenuated
[7]
  Effect on EKP-induced neuronal activity (cumulative photons emitted): significantly diminished

## C=CC[C@H](N)C(=O)O [L-AG]
mice
  ED50 for seizure induction: 375 µg/kg
